Laboratory results taken from PMC10449848, “Structural basis of lipid-droplet localization of 17-beta-hydroxysteroid dehydrogenase 13” (Nature Communications, 2023).
Numbering of substitutions follows the chain as printed.

What was measured:
[1] = target: T1, dog WT HSD17B13 (Canis lupus familiaris, UniProt A0A8C0PP93); assay: Thermal shift assay (static light scattering, Tagg), dog WT HSD17B13; format: binding; conditions: Fig. 6d; 500 μM NAD+
T1 construct: HSD17B13 (AA1-300, XP_038300006.1); made in house; host or cells: Sf9 (baculovirus)
T1 sequence (A0A8C0PP93 1-300): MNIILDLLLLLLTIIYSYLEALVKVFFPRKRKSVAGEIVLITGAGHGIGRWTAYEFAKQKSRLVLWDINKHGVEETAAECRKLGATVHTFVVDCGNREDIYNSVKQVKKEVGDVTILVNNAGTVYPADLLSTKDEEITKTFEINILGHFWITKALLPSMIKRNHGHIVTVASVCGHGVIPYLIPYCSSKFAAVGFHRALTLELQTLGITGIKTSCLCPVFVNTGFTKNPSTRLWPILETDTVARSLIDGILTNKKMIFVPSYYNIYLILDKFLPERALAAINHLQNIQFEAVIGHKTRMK
Excerpt: (§1) To understand ligand binding, we tested several approaches such as surface plasmon resonance and isothermal calorimetry. […] We next turned to thermal shift assays (TSA) for comparing ligand binding affinities. TSA measures the changes in the thermal denaturation temperature of a protein under different conditions such as the presence compound, changes in buffer conditions, or sequence mutations. There are various readouts including intrinsic fluorescence or light scattering signals. We chose the static light scattering methods to detect the temperatures at which our proteins start to aggregate (Tagg), which are more suitable for membrane proteins that require detergent micelles for stability.
(§2) TSA studies were run on the UNit instrument (Unchained Labs, CA, USA). […] The data was processed using the UNcle software (Unchained Labs, CA, USA), and temperatures at which the protein started aggregation were recorded as Tagg.

[2] = target: T2, dog mutant HSD17B13 (G177E/V178G/T205A/I293V) (Canis lupus familiaris, UniProt A0A8C0PP93, G177E/I293V/T205A/V178G); assay: Thermal shift assay (static light scattering, Tagg), dog mutant HSD17B13; format: binding; conditions: Fig. 6d, 500 μM NAD+
T2 construct: HSD17B13 (AA1-300, XP_038300006.1); made in house; host or cells: Sf9 (baculovirus)
T2 sequence (A0A8C0PP93 1-300 G177E/V178G/T205A/I293V): T1 sequence (A0A8C0PP93 1-300) with G177E, V178G, T205A, I293V
Excerpt: as §1, §2

O=C(NC[C@]1(O)CC[C@H](COc2ccccc2F)CC1)c1ccc(O)c(F)c1 [Compound 1]
stabilization in TSA [1]: Neither 1 nor 2 stabilized dog WT HSD17B13 significantly
binding in TSA [2]: bound compound 1 strongly
Tagg ([2]; 50 µM compound): 46.8 ± 2.2 °C
